# Tests used:
# SKOV3 = experiment: CCK-8 cell growth inhibition, SKOV3; type: cell-based, human; conditions: CCK-8 assay, 72-h incubation; read-out: Cell Lines IC50 SKOV3
# Protocol: (§1) In vitro anticancer screening of all newly synthesized compounds towards human solid tumor cells, cervical (SiHa) and ovarian (SKOV3) cancer cell lines, was carried out by standard CCK-8 assay with cisplatin as the positive control, as cisplatin is one of the most used chemotherapy drugs. […] The compound was further evaluated in a dose response study against a panel of solid tumor cells, including cervical cancer cell lines (SiHa and HeLa), ovarian cancer cell lines (SKOV3 and OVCAR-5), breast cancer cell lines (4T1 and MCF-7), lung cancer cell lines (A549 and H460) to test cytotoxic activity. The IC50 values were summarized in Table 2, including the cytotoxic activity of the cisplatin used as reference compound.
# (§2) The viability of cells as determined using the CCK8 assay method. Cells were seeded (2000–3000 cells per well) in 96-well plates. After incubation for 24 h in serum-containing media, the cells were treated with drugs at different concentrations diluted with culture medium for 72 h at 37 °C with a 5% CO2 atmosphere. Then, 10 μL CCK8 regent (Promega, WI) was added to each well, and the plates were incubated for 1–4 h at 37 °C. Finally, absorbance values of test wells (AS), control wells (AC) and blank wells (Ab) at 450 nm were read using the Microplate Reader (Promega, WI). Inhibition ratios were calculated as follows: [(AC − AS)/ (AC−Ab)] × 100%. IC50 values were calculated using GraphPad software.
# SiHa = experiment: CCK-8 cell growth inhibition, SiHa; type: cell-based, human; conditions: CCK-8 assay, 72-h incubation; read-out: Cell Lines IC50 SiHa
# Protocol: as §1, §2
# OVCAR-5 = experiment: CCK-8 cell growth inhibition, OVCAR-5; type: cell-based, human; conditions: ovarian cancer; CCK-8 assay, 72-h incubation
# Protocol: as §1
# as §2, with “Then, 10 μL CCK8 regent (Promega, WI) was added to each well, and the plates were incubated for 1–4 h at 37 °C.” left out
# MCF-7 = experiment: CCK-8 cell growth inhibition, MCF-7; type: cell-based, human; conditions: breast cancer; CCK-8 assay, 72-h incubation
# Protocol: as §1
# as §2, with “Then, 10 μL CCK8 regent (Promega, WI) was added to each well, and the plates were incubated for 1–4 h at 37 °C.” left out
# HeLa = experiment: CCK-8 cell growth inhibition, HeLa; type: cell-based, human; conditions: cervical cancer; CCK-8 assay, 72-h incubation
# Protocol: as §1
# as §2, with “Then, 10 μL CCK8 regent (Promega, WI) was added to each well, and the plates were incubated for 1–4 h at 37 °C.” left out
# 4T1 = experiment: CCK-8 cell growth inhibition, 4T1; type: cell-based; conditions: breast cancer; CCK-8 assay, 72-h incubation
# Protocol: as §1
# as §2, with “Then, 10 μL CCK8 regent (Promega, WI) was added to each well, and the plates were incubated for 1–4 h at 37 °C.” left out
# A549 = experiment: CCK-8 cell growth inhibition, A549; type: cell-based, human; conditions: lung cancer; CCK-8 assay, 72-h incubation
# Protocol: as §1
# as §2, with “Then, 10 μL CCK8 regent (Promega, WI) was added to each well, and the plates were incubated for 1–4 h at 37 °C.” left out
# H460 = experiment: CCK-8 cell growth inhibition, H460; type: cell-based, human; conditions: lung cancer; CCK-8 assay, 72-h incubation
# Protocol: as §1
# as §2, with “Then, 10 μL CCK8 regent (Promega, WI) was added to each well, and the plates were incubated for 1–4 h at 37 °C.” left out
# SiHa xenograft = SiHa xenograft mouse model, oral dosing; type: in vivo; conditions: SiHa xenograft mice, 20 mg/kg oral, every day
# Protocol: Based on a desirable set of in vitro properties, 12O was finally selected for further in vivo evaluation. We proceeded to test the antitumor efficacy of 12O in SiHa xenograft mice. Animals were orally given three doses (5, 10, and 20 mg Kg^−1) of 12O, one dose (20 mg Kg^−1) of cisplatin (positive control), or vehicle (control) every day. […] Of note, In Figure 5c, an obvious decrease in tumor size was also observed at the end of observation. The average tumor weight (Figure 5d) of the 12O-treated group was less than that of cisplatin. HE staining was further performed to identify the efficacy of 12O (Figure 5e). […] Additional kinase activities of 12O intimately associated with the growth, survival, and metastasis in tumor cells, may contribute to the antitumor activity, but may also cause side effects. Multi-target kinase inhibitor extensively used in clinic cancer therapy, while hampered by associated adverse reactions and side-effect. Thus, further evidence is needed. An in-depth study of compound 12O is ongoing in our laboratory and will be reported in due course.
# All animal studies were conducted under the approval of the Experimental Animal Management Committee of Nankai University (No. NKUEC20190228). Six- to eight-week-old female BALB/c nude mice were purchased from Beijing HFK Bioscience Company. Mice were fed in an SPF-level laboratory animal room. The mice were kept in independent ventilation cages with autoclaved corncobs at the bottom of the cage as bedding. The dimensions of the cages were 390 × 180 × 180 mm. Environmental factors: Average air temperature ranged from 20 to 26 °C with average relative air humidity ranging from 40 to 70%. Noise was below 60 decibels. Ventilation times were more than 15 times/hour. Air velocity was 0.1~0.2m/s. The ammonia concentration was below 14/(mg/m³). Working illumination was 150~300LX and animal illumination was 15~20LX. The nutritional components of mouse food include: water content: ≤10%, crude protein: ≥18%, crude fat: ≥4%, crude fiber: ≥5%, minerals: ≥4%, calcium: 1.0–1.8%, Phosphorus: 0.6-1.2%. The water that mice drink is sterilized by the animal drinking system.
# Cells SiHa were harvested during the exponential-growth phase, washed 3 times with serum-free medium, followed by resuspension at a concentration of 2 × 10^6 per mL. A total of 100 μL of cell suspension was injected into SCID mice subcutaneously. After the tumors had grown to 100−150 mm^3, all the mice were randomized into 5 groups (5 mice for each group, 25 mice total). The mice were treated daily via oral gavage administration with 12O (5, 10, or 20 mg kg^−1 d^−1), cisplatin (20 mg kg^−1 d^−1), or vehicle. […] Mice were monitored for side effects every day. Body weights and tumor sizes were determined every other day and volume was also observed. At the end-point of the study, all mice had survived. Mice were euthanized and the subcutaneous tumor tissues were stripped and collected. Tumor measurements were calculated using a digital vernier caliper, and the volumes were determined using the following calculation: (short^2) × long × 0.5. Inhibition rate of tumor growth was calculated using the following formula: 100 × {1 − [(tumor volume final-tumor volume initial) for 12O-treated group]/ [(tumor volume final-tumor volume initial) for the vehicle-treated group]} [23].
IC50 (SKOV3),Compound,IC50 (SiHa),other results
706 nM,"N-(4-bromophenyl)-N-(4-((5-fluoro-4-(1-isopropyl-1H-benzo[d](1,2,3)triazol-6-yl)pyrimidin-2-yl)amino)benzyl)cyclopropane-1,1-dicarboxamide [12F]",128 nM,–
915 nM,"N-(4-chloro-3-(trifluoromethyl)phenyl)-N-(4-((5-fluoro-4-(1-isopropyl-1H-benzo[d](1,2,3)triazol-6-yl)pyrimidin-2-yl)amino)benzyl)cyclopropane-1,1-dicarboxamide [12P]",231 nM,–
793 nM,"N-(4-chlorophenyl)-N-(4-((5-fluoro-4-(1-isopropyl-1H-benzo[d](1,2,3)triazol-6-yl)pyrimidin-2-yl)amino)benzyl)cyclopropane-1,1-dicarboxamide [12D]",63 nM,–
459 nM,"N-(3-chlorophenyl)-N-(4-((5-fluoro-4-(1-isopropyl-1H-benzo[d](1,2,3)triazol-6-yl)pyrimidin-2-yl)amino)benzyl)cyclopropane-1,1-dicarboxamide [12C]",68 nM,–
778 nM,"N-(3-bromophenyl)-N-(4-((5-fluoro-4-(1-isopropyl-1H-benzo[d](1,2,3)triazol-6-yl)pyrimidin-2-yl)amino)benzyl)cyclopropane-1,1-dicarboxamide [12E]",66 nM,–
498 nM,"N-(4-((5-fluoro-4-(1-isopropyl-1H-benzo[d](1,2,3)triazol-6-yl)pyrimidin-2-yl)amino)benzyl)-N-(3-(trifluoromethyl)phenyl)cyclopropane-1,1-dicarboxamide [12M]",177 nM,–
137 nM,"N-(4-((5-fluoro-4-(1-isopropyl-1H-benzo[d](1,2,3)triazol-6-yl)pyrimidin-2-yl)amino)benzyl)-N-(p-tolyl)cyclopropane-1,1-dicarboxamide [12J]",74 nM,–
199 nM,"N-(4-((5-fluoro-4-(1-isopropyl-1H-benzo[d](1,2,3)triazol-6-yl)pyrimidin-2-yl)amino)benzyl)-N-(4-fluorophenyl)cyclopropane-1,1-dicarboxamide [12B]",28 nM,–
427 nM,"N-(4-((5-fluoro-4-(1-isopropyl-1H-benzo[d](1,2,3)triazol-6-yl)pyrimidin-2-yl)amino)benzyl)-N-(4-(trifluoromethyl)phenyl)cyclopropane-1,1-dicarboxamide [12N]",160 nM,–
101 nM,"N-(4-cyanophenyl)-N-(4-((5-fluoro-4-(1-isopropyl-1H-benzo[d](1,2,3)triazol-6-yl)pyrimidin-2-yl)amino)benzyl)cyclopropane-1,1-dicarboxamide [12L]",63 nM,–
165 nM,"N-(4-((5-fluoro-4-(1-isopropyl-1H-benzo[d](1,2,3)triazol-6-yl)pyrimidin-2-yl)amino)benzyl)-N-(m-tolyl)cyclopropane-1,1-dicarboxamide [12I]",42 nM,–
325 nM,"N-(4-((5-fluoro-4-(1-isopropyl-1H-benzo[d](1,2,3)triazol-6-yl)pyrimidin-2-yl)amino)benzyl)-N-(3-methoxyphenyl)cyclopropane-1,1-dicarboxamide [12G]",73 nM,–
531 nM,"N-(4-((5-fluoro-4-(1-isopropyl-1H-benzo[d](1,2,3)triazol-6-yl)pyrimidin-2-yl)amino)benzyl)-N-(3-fluorophenyl)cyclopropane-1,1-dicarboxamide [12A]",35 nM,–
312 nM,"N-(4-((5-fluoro-4-(1-isopropyl-1H-benzo[d](1,2,3)triazol-6-yl)pyrimidin-2-yl)amino)benzyl)-N-(4-methoxyphenyl)cyclopropane-1,1-dicarboxamide [12H]",80 nM,–
108 nM,"N-(3-cyanophenyl)-N-(4-((5-fluoro-4-(1-isopropyl-1H-benzo[d](1,2,3)triazol-6-yl)pyrimidin-2-yl)amino)benzyl)cyclopropane-1,1-dicarboxamide [12K]",83 nM,–

Compound,IC50 (SKOV3),IC50 (SiHa),other results
"N.N.[Cl][Pt][Cl] [Cisplatin, cisplatin, reference compound]",5360 nM,4910 nM,IC50 (OVCAR-5): 1240 nM; IC50 (MCF-7): 7.16 µM; IC50 (HeLa): 5.81 µM; IC50 (4T1): 4.26 µM; IC50 (A549): 8.28 µM; IC50 (H460): > 10 µM; Tumor growth inhibition (TGI) (SiHa xenograft): 31.14%
